Assay results from US20210403567A1, “METHODS OF TREATING CERVICAL CANCER BY ADMINISTERING A PD-1 INHIBITOR” (priority 2020, published 2021).
Read-outs that look alike come from different tables or passages of the source.

Legend:
[1] = tested on: recurrent or metastatic cervical cancer that has progressed after first-line platinum-based treatment
[2] = tested on: cervical cancer; details: 12/98; cited from earlier work
[3] = tested on: cervical cancer; details: 5/19; squamous histology only; cited from earlier work
[4] = tested on: cervical cancer; details: patient population of 60% squamous histology; cited from earlier work
[5] = subgroup with IC chemotherapy selected prior to randomisation: Irinotecan (n = 26 vs 19)
[6] = subgroup with IC chemotherapy selected prior to randomisation: Gemcitabine (n = 108 vs 121)

With `CCc1c2c(nc3ccc(OC(=O)N4CCC(N5CCCCC5)CC4)cc13)-c1cc3c(c(=O)n1C2)COC(=O)[C@]3(O)CC` [irinotecan, reference compound] the “Median OS (95% CI)” value [1, 5] was 11.8 (6.9-14.9) months, the “Median PFS (95% CI)” value [1, 5] was 4.2 (1.6-8.3) months and the ORR [1, 5] was 15.8%.

For pembrolizumab, the “ORR in the cervical cancer cohort” value [2] is given as 12.2%.

For nivolumab, the objective response rate [3] is given as 26.3% and the response rate [4] is given as 4%.

In the case of `Nc1ccn([C@@H]2O[C@H](CO)[C@@H](O)C2(F)F)c(=O)n1` [gemcitabine, reference compound], the “Median OS (95% CI)” value [1, 6] is reported as 9.0 (7.0-10.6) months, the “Median PFS (95% CI)” value [1, 6] is reported as 2.8 (2.1-3.9) months and the ORR [1, 6] is reported as 5.0%.
